4 molecules from patent publication US20240226104A1, “PI3K INHIBITORS, NANOFORMULATIONS, AND USES THEREOF” (THE REGENTS OF THE UNIVERSITY OF MICHIGAN, priority 2021, published 2024) can be followed below.

Structures are written as SMILES.

In this test the test system is 3D multicellular tumor spheroids (4T1 cells and M2 macrophages derived from RAW264.7 cells). As to the kind of experiment: 3D multicellular tumor spheroids (MCTs) growth. The note with it: single drug 5 μM; combination 2.5 μM plus 2.5 μM; 14 days. Format: cell-based. On the procedure: 3D multicellular tumor spheroids (MICs), 4T1 cells and M2 macrophages derived from RAW264.7 cells were mixed in the ratio of 7:3 and then seeded into an ultralow-attachment 96 well plate (Corning) at a density of 5,000 cells/well and cultured for 30 h to form the tumor spheroids. These tumor spheroids were separately incubated with 300 μL complete medium supplemented with PTX ([…]), gemcitabine (5 μM), doxorubicin (5 μM), and IPI-549 (5 μM) as well as the combination of IPI-549 and PTX (2.5 μM+[…]), IPI-549 and gemcitabine (2.5 μM+2.5 μM), and IPI-549 and doxorubicin (2.5 μM+2.5 μM) for 14 days. The volumes ([major axis]×[minor axis]^2/2) of the MTCs were monitored every other day using an Olympus IX83 motorized inverted microscope with cellSens Dimension software (Olympus), and images were captured using a CellInsight CX5 High-Content Screening (HCS) Platform (Thermo Fisher) at 4× magnification.
Regarding `C[C@H](NC(=O)c1c(N)nn2cccnc12)c1cc2cccc(C#Cc3cnn(C)c3)c2c(=O)n1-c1ccccc1` [IPI-549], the “inhibition of 3D MCTs growth” value is listed as “limited inhibition of 3D MCTs growth”.
Turning to `CC(=O)O[C@H]1C(=O)[C@@]2(C)[C@H]([C@H](OC(=O)c3ccccc3)[C@]3(O)C[C@H](OC(=O)[C@H](O)[C@@H](NC(=O)c4ccccc4)c4ccccc4)C(C)=C1C3(C)C)[C@]1(OC(C)=O)CO[C@@H]1C[C@@H]2O` [PTX, paclitaxel], the “inhibition of 3D MCTs growth” value was “limited inhibition of 3D MCTs growth”.
With `COc1cccc2c1C(=O)c1c(O)c3c(c(O)c1C2=O)C[C@@](O)(C(=O)CO)C[C@@H]3O[C@H]1C[C@H](N)[C@H](O)[C@H](C)O1` [doxorubicin] the entry was “limited inhibition of 3D MCTs growth”; with `Nc1ccn([C@@H]2O[C@H](CO)[C@@H](O)C2(F)F)c(=O)n1` [gemcitabine], “limited inhibition of 3D MCTs growth”.
